Data taken from US10800792B2, “Inhibitors of Bruton's tyrosine kinase and method of their use” (JANSSEN PHARMACEUTICA NV, priority 2015, dated 2020).

Target: unphosphorylated-BTK kinase domain (UP-BTK), GST-tagged human BTK (389-659aa) (Homo sapiens (Human), UniProt Q06187)
Assay: BTK kinase Lanthascreen binding assay
Details: unphosphorylated-BTK kinase domain, 50 nM Tracer 236, 60 minutes, pIC50 = negative log of the IC50 in molar; for IC50: read-out: BTK_I_binding pIC50 (converted)
In short: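 A fluorescent tracer is bound to unphosphorylated BTK; test compound is added to compete it off; the Lanthascreen signal is read and IC50 is fitted, then reported as its negative log in molar.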

Chain of unphosphorylated-BTK kinase domain (UP-BTK), GST-tagged human BTK (389-659aa) (Q06187 389-659): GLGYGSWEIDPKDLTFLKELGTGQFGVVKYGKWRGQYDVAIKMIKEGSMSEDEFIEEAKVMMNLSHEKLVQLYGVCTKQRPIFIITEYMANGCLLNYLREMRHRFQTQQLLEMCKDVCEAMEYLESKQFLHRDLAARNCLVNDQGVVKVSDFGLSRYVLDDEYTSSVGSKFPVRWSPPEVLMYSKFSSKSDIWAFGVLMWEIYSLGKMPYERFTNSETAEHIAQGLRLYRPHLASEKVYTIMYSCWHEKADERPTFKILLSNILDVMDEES

SMILES	BTK_I_binding pIC50	IC50 [nM]
O=C(N[C@@H]1CCCNC1)c1sc2nccc3c2c1NC(=O)N3c1ccc(-c2ccccc2)cc1 [Example 344, (R)-5-([1,1′-Biphenyl]-4-yl)-4-oxo-N-(piperidin-3-yl)-4,5-dihydro-3H-1-thia-3,5,8-triazaacenaphthylene-2-carboxamide]	5.0	–
O=C(N[C@@H]1CCCNC1)c1sc2nccc3c2c1NC(=O)N3c1ccc(Cl)c(Cl)c1 [Example 346, (R)-5-(3,4-Dichlorophenyl)-4-oxo-N-(piperidin-3-yl)-4,5-dihydro-3H-1-thia-3,5,8-triazaacenaphthylene-2-carboxamide]	<5	–
O=C(N[C@@H]1CCCNC1)c1sc2nccc3c2c1NC(=O)N3c1cccc(C(F)(F)F)c1 [Example 347, (R)-4-Oxo-N-(piperidin-3-yl)-5-(3-(trifluoromethyl)phenyl)-4,5-dihydro-3H-1-thia-3,5,8-triazaacenaphthylene-2-carboxamide]	<5	–
O=C(N[C@@H]1CCCNC1)c1sc2nccc3c2c1NC(=O)N3c1ccccc1 [Example 348, (R)-4-Oxo-5-phenyl-N-(piperidin-3-yl)-4,5-dihydro-3H-1-thia-3,5,8-triazaacenaphthylene-2-carboxamide]	<5	–
C=CC(=O)N1CC[C@@H](NC(=O)c2sc3nccc4c3c2NC(=O)N4c2nnc(Oc3ccccc3)cc2C)C1 [Example 351, (R)—N-(1-Acryloylpyrrolidin-3-yl)-5-(4-methyl-6-phenoxypyridazin-3-yl)-4-oxo-4,5-dihydro-3H-1-thia-3,5,8-triazaacenaphthylene-2-carboxamide]	<5	–
Cc1ccccc1N1C(=O)Nc2c(C(=O)N[C@@H]3CCCN(C)C3)sc3nccc1c23 [Example 352, (R)—N-(1-Methylpiperidin-3-yl)-4-oxo-5-(o-tolyl)-4,5-dihydro-3H-1-thia-3,5,8-triazaacenaphthylene-2-carboxamide]	<5	–
CN(C)c1cccc(N2C(=O)Nc3c(C(=O)N[C@@H]4CCCNC4)sc4nccc2c34)c1 [Example 356, (R)-5-(3-(Dimethylamino)phenyl)-4-oxo-N-(piperidin-3-yl)-4,5-dihydro-3H-1-thia-3,5,8-triazaacenaphthylene-2-carboxamide]	<5	–
C=CC(=O)N1CCC[C@@H](NC(=O)c2sc3nccc4c3c2NC(=O)N4C(C)C)C1 [Example 357, (R)—N-(1-Acryloylpiperidin-3-yl)-5-isopropyl-4-oxo-4,5-dihydro-3H-1-thia-3,5,8-triazaacenaphthylene-2-carboxamide]	5.1	–
C=CC(=O)N1CCC[C@@H](NC(=O)c2sc3nccc4c3c2NC(=O)N4c2cccnc2C)C1 [Example 358, (R)—N-(1-Acryloylpiperidin-3-yl)-5-(2-methylpyridin-3-yl)-4-oxo-4,5-dihydro-3H-1-thia-3,5,8-triazaacenaphthylene-2-carboxamide]	5.2	–
Cc1ncccc1N1C(=O)Nc2c(C(=O)N[C@@H]3CCCNC3)sc3nccc1c23 [Example 359, (R)-5-(2-Methylpyridin-3-yl)-4-oxo-N-(piperidin-3-yl)-4,5-dihydro-3H-1-thia-3,5,8-triazaacenaphthylene-2-carboxamide]	<5	–
C=CC(=O)N1CCC[C@@H](NC(=O)c2sc3nccc4c3c2NC(=O)N4c2ccc(Cl)c(Cl)c2)C1 [Example 360, (R)—N-(1-Acryloylpiperidin-3-yl)-5-(3,4-dichlorophenyl)-4-oxo-4,5-dihydro-3H-1-thia-3,5,8-triazaacenaphthylene-2-carboxamide]	6.7	–
CC(C)N1C(=O)Nc2c(C(=O)N[C@@H]3CCCNC3)sc3nccc1c23 [Example 361, (R)-5-Isopropyl-4-oxo-N-(piperidin-3-yl)-4,5-dihydro-3H-1-thia-3,5,8-triazaacenaphthylene-2-carboxamide]	<5	–
C=CC(=O)N1CCC[C@@H](NC(=O)c2sc3nccc4c3c2NC(=O)N4c2ccc(Cl)c(C(F)(F)F)c2)C1 [Example 362, (R)—N-(1-Acryloylpiperidin-3-yl)-5-(4-chloro-3-(trifluoromethyl)phenyl)-4-oxo-4,5-dihydro-3H-1-thia-3,5,8-triazaacenaphthylene-2-carboxamide]	5.4	–
Cc1cc(Oc2ccccc2)ccc1N1C(=O)Nc2c(C(=O)N[C@@H]3CCN(C(=O)/C=C/CN(C)C)C3)sc3nccc1c23 [Example 368, (R,E)-N-(1-(4-(Dimethylamino)but-2-enoyl)pyrrolidin-3-yl)-5-(2-methyl-4-phenoxyphenyl)-4-oxo-4,5-dihydro-3H-1-thia-3,5,8-triazaacenaphthylene-2-carboxamide]	7.6	–
[2H]C([2H])([2H])N1CCC[C@@H](NC(=O)c2sc3nccc4c3c2NC(=O)N4c2ccc(Oc3ccccc3)cc2C)C1 [Example 370, (R)-5-(2-Methyl-4-phenoxyphenyl)-N-(1-trideuteriomethylpiperidin-3-yl)-4-oxo-4,5-dihydro-3H-1-thia-3,5,8-triazaacenaphthylene-2-carboxamide]	–	100
CN(C)C/C=C/C(=O)N1CCC[C@@H](NC(=O)c2sc3nccc4c3c2NC(=O)N4c2ccc(Oc3ccccc3)cc2)C1 [Example 373, (R,E)-N-(1-(4-(Dimethylamino)but-2-enoyl)piperidin-3-yl)-4-oxo-5-(4-phenoxyphenyl)-4,5-dihydro-3H-1-thia-3,5,8-triazaacenaphthylene-2-carboxamide]	7.3	–
[2H]c1c([2H])c([2H])c(Oc2ccc(N3C(=O)Nc4c(C(=O)N[C@@H]5CCCN(C(=O)C=C)C5)sc5nccc3c45)c(C)c2)c([2H])c1[2H] [Example 375, (R)—N-(1-Acryloylpiperidin-3-yl)-5-(2-methyl-4-(2,3,4,5,6-pentadeuteriophenoxy)phenyl)-4-oxo-4,5-dihydro-3H-1-thia-3,5,8-triazaacenaphthylene-2-carboxamide]	–	12.6
[2H]c1c([2H])c([2H])c(Oc2ccc(N3C(=O)Nc4c(C(=O)N[C@@H]5CCN(C(=O)C=C)C5)sc5nccc3c45)c(C)c2)c([2H])c1[2H] [Example 376, (R)—N-(1-Acryloylpyrrolidin-3-yl)-5-(2-methyl-4-(2,3,4,5,6-pentadeuteriophenoxy)phenyl)-4-oxo-4,5-dihydro-3H-1-thia-3,5,8-triazaacenaphthylene-2-carboxamide]	–	15.8

Now from value to molecule, other results behind:

BTK_I_binding pIC50	SMILES	IC50 [nM]
<5	CN1CCC[C@@H](NC(=O)c2sc3nccc4c3c2NC(=O)N4c2ccc(Oc3ccccc3)cc2C(F)(F)F)C1 [Example 349, (R)—N-(1-Methylpiperidin-3-yl)-4-oxo-5-(4-phenoxy-2-(trifluoromethyl)phenyl)-4,5-dihydro-3H-1-thia-3,5,8-triazaacenaphthylene-2-carboxamide]	–
<5	Cc1cc(Oc2ccccc2)nnc1N1C(=O)Nc2c(C(=O)N[C@@H]3CCCN(C)C3)sc3nccc1c23 [Example 350, (R)-5-(4-Methyl-6-phenoxypyridazin-3-yl)-N-(1-methylpiperidin-3-yl)-4-oxo-4,5-dihydro-3H-1-thia-3,5,8-triazaacenaphthylene-2-carboxamide]	–
<5	Cc1cc(Oc2ccncc2)ccc1N1C(=O)Nc2c(C(=O)N[C@@H]3CCCN(C)C3)sc3nccc1c23 [Example 354, (R)-5-(2-Methyl-4-(pyridin-4-yloxy)phenyl)-N-(1-methylpiperidin-3-yl)-4-oxo-4,5-dihydro-3H-1-thia-3,5,8-triazaacenaphthylene-2-carboxamide]	–
6.9	COC(C)(C)CC(=O)N1CCC[C@@H](NC(=O)c2sc3nccc4c3c2NC(=O)N4c2ccc(Oc3ccccc3)cc2C)C1 [Example 363, (R)—N-(1-(3-Methoxy-3-methylbutanoyl)piperidin-3-yl)-5-(2-methyl-4-phenoxyphenyl)-4-oxo-4,5-dihydro-3H-1-thia-3,5,8-triazaacenaphthylene-2-carboxamide]	–
6.8	CC(=O)N/C=C\C(=O)N1CCC[C@@H](NC(=O)c2sc3nccc4c3c2NC(=O)N4c2ccc(Oc3ccccc3)cc2C)C1 [Example 364, (R,Z)—N-(1-(3-Acetamidoacryloyl)piperidin-3-yl)-5-(2-methyl-4-phenoxyphenyl)-4-oxo-4,5-dihydro-3H-1-thia-3,5,8-triazaacenaphthylene-2-carboxamide]	–
7.8	C=CS(=O)(=O)N1CC[C@@H](NC(=O)c2sc3nccc4c3c2NC(=O)N4c2ccc(Oc3ccccc3)cc2C)C1 [Example 369, (R)-5-(2-Methyl-4-phenoxyphenyl)-4-oxo-N-(1-(vinylsulfonyl)pyrrolidin-3-yl)-4,5-dihydro-3H-1-thia-3,5,8-triazaacenaphthylene-2-carboxamide]	–
7.0	Cc1cc(Oc2ccccc2)ccc1N1C(=O)Nc2c(C(=O)N[C@@H]3CCCN(C(=O)/C=C/CN(C)C)C3)sc3nccc1c23 [Example 371, (R,E)-N-(1-(4-(Dimethylamino)but-2-enoyl)piperidin-3-yl)-5-(2-methyl-4-phenoxyphenyl)-4-oxo-4,5-dihydro-3H-1-thia-3,5,8-triazaacenaphthylene-2-carboxamide]	–
7.6	C=CS(=O)(=O)N1CCC[C@@H](NC(=O)c2sc3nccc4c3c2NC(=O)N4c2ccc(Oc3ccccc3)cc2C)C1 [Example 372, (R)-5-(2-Methyl-4-phenoxyphenyl)-4-oxo-N-(1-(vinylsulfonyl)piperidin-3-yl)-4,5-dihydro-3H-1-thia-3,5,8-triazaacenaphthylene-2-carboxamide]	–
7.0	Cc1cc(Oc2ccccc2)ccc1N1C(=O)Nc2c(C(=O)N[C@@H]3CCCN(C(=O)/C=C/CS(C)(=O)=O)C3)sc3nccc1c23 [Example 374, (R,E)-5-(2-Methyl-4-phenoxyphenyl)-N-(1-(4-(methylsulfonyl)but-2-enoyl)piperidin-3-yl)-4-oxo-4,5-dihydro-3H-1-thia-3,5,8-triazaacenaphthylene-2-carboxamide]	–
